Earlier results on 23 molecules are cited in PubChem BioAssay AID493017 (Abbott Labs, 1994).

The target of the series is Platelet-derived growth factor receptor alpha (Homo sapiens) (UniProt P16234). Put plainly: PubChem AID 493017. The settings on record: WOMBAT literature affinities, multiple human targets; PDGFR; gene PDGFRA; NCBI gene 5156.
Platelet-derived growth factor receptor alpha (Homo sapiens), sequence (P16234 whole entry, looked up): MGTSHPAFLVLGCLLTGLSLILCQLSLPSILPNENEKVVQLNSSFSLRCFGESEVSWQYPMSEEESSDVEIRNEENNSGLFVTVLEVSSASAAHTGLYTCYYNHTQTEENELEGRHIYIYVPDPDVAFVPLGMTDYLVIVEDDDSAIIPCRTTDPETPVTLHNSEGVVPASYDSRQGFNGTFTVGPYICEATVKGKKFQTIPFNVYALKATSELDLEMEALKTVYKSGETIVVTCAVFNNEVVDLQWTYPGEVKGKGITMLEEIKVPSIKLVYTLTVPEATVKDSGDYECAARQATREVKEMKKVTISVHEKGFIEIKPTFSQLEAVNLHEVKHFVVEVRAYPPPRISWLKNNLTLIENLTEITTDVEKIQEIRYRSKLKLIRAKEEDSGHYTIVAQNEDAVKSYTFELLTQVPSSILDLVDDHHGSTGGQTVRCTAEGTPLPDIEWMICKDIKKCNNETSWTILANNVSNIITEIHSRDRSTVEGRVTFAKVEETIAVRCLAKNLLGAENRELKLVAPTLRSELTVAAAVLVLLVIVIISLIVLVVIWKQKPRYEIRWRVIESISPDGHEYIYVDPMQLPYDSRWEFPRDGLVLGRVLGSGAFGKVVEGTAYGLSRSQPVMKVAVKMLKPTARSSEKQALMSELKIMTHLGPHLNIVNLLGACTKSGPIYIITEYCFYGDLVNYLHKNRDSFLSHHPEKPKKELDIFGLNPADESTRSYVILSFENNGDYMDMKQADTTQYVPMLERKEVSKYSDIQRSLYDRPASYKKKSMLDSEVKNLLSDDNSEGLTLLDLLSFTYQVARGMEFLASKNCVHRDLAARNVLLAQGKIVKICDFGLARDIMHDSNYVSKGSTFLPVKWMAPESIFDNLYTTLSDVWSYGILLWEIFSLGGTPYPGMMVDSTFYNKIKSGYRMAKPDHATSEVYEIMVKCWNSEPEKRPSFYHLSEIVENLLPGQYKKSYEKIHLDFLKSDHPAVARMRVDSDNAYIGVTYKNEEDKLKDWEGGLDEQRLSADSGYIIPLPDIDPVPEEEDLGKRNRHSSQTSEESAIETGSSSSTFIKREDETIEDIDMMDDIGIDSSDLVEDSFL

For orientation: IC50 means the midpoint of a concentration-inhibition curve. Regarding `COc1cc2cc(-c3ccc(O)cc3)cnc2cc1OC`, the IC50 was 24.5 nM. Take `COc1ccc(-c2cnc3cc(OC)c(OC)cc3c2)cc1`: the IC50 is 3.87 nM. For `COc1cc2cc(C#Cc3ccccc3)cnc2cc1OC`, the IC50 was 31.6 nM. On to `COc1cc2cc(C3CCCC3)cnc2cc1OC`, for which the IC50 was 224 nM. For the molecule `COc1cc2cc(C3=CCCC3)cnc2cc1OC`, the IC50 is 28.3 nM. For the molecule `COc1cc2cccnc2cc1OC`, the 50% inhibitory concentration (IC50) was 24500 nM. On to `Oc1cc2cc(-c3cccnc3)cnc2cc1O`, for which the IC50 is 7750 nM. Consider `COc1cc2cc(C#CC3CCCCC3)cnc2cc1OC`, for which the IC50 was 548 nM. In the case of `COc1ccc(C=Cc2cnc3cc(OC)c(OC)cc3c2)cc1`, the IC50 is 54.8 nM.

On to `COc1ccc(-c2cnc3cc(OC)c(OC)cc3c2)s1`, for which the concentration for half-maximal inhibition (IC50) was 158 nM. As for `COc1cc2cc(-c3ccc(Cl)c(Cl)c3)cnc2cc1OC`, the IC50 was 2650 nM. Consider `COc1ccc(-c2cnc3cc(OC)c(OC)cc3c2)cc1C`, for which the IC50 was 200 nM.

As for `COc1cc2cc(-c3ccccc3)cnc2cc1OC`, the IC50 was 102 nM. Take `COc1cc2cc(-c3ccc(=O)[nH]c3)cnc2cc1OC`: the IC50 is 21.2 nM. With `c1ccc2ncc(-c3c[nH]c4ccccc34)cc2c1`, the IC50 is 4000 nM. Regarding `COc1cc2cc(-c3c[nH]c4ccccc34)cnc2cc1OC`, the IC50 was 245 nM.

As for `COc1cccc(-c2cnc3cc(OC)c(OC)cc3c2)c1`, the IC50 is 1410 nM. With `COc1cc2cc(-c3ccc(C(=O)O)cc3)cnc2cc1OC`, the IC50 was 1870 nM. With `COc1ccc(CCc2cnc3cc(OC)c(OC)cc3c2)cc1`, the 50% inhibitory concentration (IC50) was 400 nM. Turning to `Fc1cc2cc(-c3ccsc3)cnc2cc1F`, the IC50 was 2830 nM.

`COc1cc2cc(OCc3ccccc3)cnc2cc1OC`: the IC50 is 52.9 nM.

As to `COc1cc2cc(CCC3CCCCC3)cnc2cc1OC`, the IC50 was 387 nM. As for `COc1cc2cc(NCc3ccccc3)cnc2cc1OC`, the IC50 was 40 nM.
